In patent publication US7629358B2, “Compounds useful for the treatment of diseases” (Pfizer Inc, priority 2004, dated 2009) one finds EC50 and melting point data, which are given here for 13 compounds.

The term EC50 denotes the concentration giving half of the maximal effect. By melting point is commonly meant the temperature, or range, at which the solid turns liquid.

Structures are written as SMILES.

T1 sequence (P07550 whole entry): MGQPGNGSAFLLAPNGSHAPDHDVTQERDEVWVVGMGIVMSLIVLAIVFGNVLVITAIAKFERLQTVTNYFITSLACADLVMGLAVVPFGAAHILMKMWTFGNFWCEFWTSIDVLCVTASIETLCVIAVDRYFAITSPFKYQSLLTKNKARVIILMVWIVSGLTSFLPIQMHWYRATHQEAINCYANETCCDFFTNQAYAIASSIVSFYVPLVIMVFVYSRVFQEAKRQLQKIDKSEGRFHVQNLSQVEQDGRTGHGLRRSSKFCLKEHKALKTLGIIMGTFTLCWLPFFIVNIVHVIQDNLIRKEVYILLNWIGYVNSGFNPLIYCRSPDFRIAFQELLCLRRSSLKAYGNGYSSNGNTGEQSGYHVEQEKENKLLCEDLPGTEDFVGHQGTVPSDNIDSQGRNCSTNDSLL

The first data set concerns the target T1, human β2 adrenergic receptor (Homo sapiens, UniProt P07550).
T1 construct: expressed in transfected cells; host or cells: CHO (Chinese Hamster Ovary) cells, CHOhβ2
The data set is described as follows: cAMP Flashplate assay in CHO cells recombinantly expressing the human β2 adrenergic receptor. Type of data set: cell-based. The note with it: CHOhβ2 cells, 1 hour incubation, data as % Isoprenaline activity. Here is the method: According to another alternative, the agonist potency for the β2 receptor of the compounds of the formula (1) may also be determined by the measure of the concentration of compound according to the present invention required to produce half maximal effect (EC50) for the β2 receptor.
10 mM/100% DMSO (dimethylsulfoxide) stock of compound is diluted to required top dose in 4% DMSO. This top dose is used to construct a 10-point semi-log dilution curve, all in 4% DMSO. Isoprenaline (Sigma, I-5627) was used as a standard in every experiment and for control wells on each plate. Data was expressed as % Isoprenaline response.
CHO (Chinese Hamster Ovary) cells recombinantly expressing the human β2 adrenergic receptor (from Kobilka et al., PNAS 84: 46-50, 1987 and Bouvier et al., Mol Pharmacol 33: 133-139 1988 CHOhβ2) were grown in Dulbeccos MEM/NUT MIX F12 (Gibco, 21331-020) supplemented with 10% foetal bovine serum (Sigma, F4135, Lot 90K8404 Exp 09/04), 2 mM glutamine (Sigma, G7513), 500 μg/ml geneticin (Sigma, G7034) and 10 μg/ml puromycin (Sigma, P8833). Cells were seeded to give about 90% confluency for testing.
25 μl/well each dose of compound was transferred into a cAMP-Flashplate® (NEN, SMP004B), with […] as basal controls and 100 nM Isoprenaline as max controls. This was diluted 1:2 by the addition of 25 μl/well PBS. Cells were trypsinised (0.25% Sigma, T4049), washed with PBS (Gibco, 14040-174) and resuspended in stimulation buffer (NEN, SMP004B) to give 1×10^6 cells/ml CHOhB2. Compounds were incubated with 50 μl/well cells for 1 hour. Cells were then lysed by the addition of 100 μl/well detection buffer (NEN, SMP004B) containing 0.18 μCi/ml ^125I-cAMP (NEN, NEX-130) and plates were incubated at room temperature for a further 2 hours. The amount of ^125I-cAMP bound to the Flashplate® was quantified using a Topcount NXT (Packard), normal counting efficiency for 1 minute. Dose-response data was expressed as % Isoprenaline activity and fitted using a four parameter sigmoid fit.
As to `C[C@H](Cc1cccc(CC(=O)NC2CCCCCC2)c1)NC[C@H](O)c1ccc(O)c(CO)c1` [Example 1, N-cycloheptyl-2-{3-[(2R)-2-({(2R)-2-hydroxy-2-[4-hydroxy-3-(hydroxymethyl)phenyl]ethyl}amino)propyl]phenyl}acetamide], the EC50 came out at 143 pM. In the case of `C[C@H](Cc1cccc(CC(=O)NCC23CC4CC(CC(C4)C2)C3)c1)NC[C@H](O)c1ccc(O)c(CO)c1` [Example 14, N-(1-adamantylmethyl)-2-{3-[(2R)-2-({(2R)-2-hydroxy-2-[4-hydroxy-3-(hydroxymethyl)phenyl]ethyl}amino)propyl]phenyl}acetamide], the EC50 came out at 64 pM.

On to `C[C@H](Cc1cccc(CC(=O)N(C)CCC2CCCCC2)c1)NC[C@H](O)c1ccc(O)c(CO)c1` [Example 16, N-(2-cyclohexylethyl)-2-{3-[(2R)-2-({(2R)-2-hydroxy-2-[4-hydroxy-3-(hydroxymethyl)phenyl]ethyl}amino)propyl]phenyl}-N-methylacetamide], for which the EC50 was 874 pM. Consider `CC(C)(Cc1cccc(CC(=O)N2CCc3ccccc3C2)c1)NC[C@H](O)c1ccc(O)c(CO)c1` [Example 23, 4{(1R)-2-[(2-{3-[2-(3,4-dihydroisoquinolin-2(1H)-yl)-2-oxoethyl]phenyl}-1,1-dimethylethyl)amino]-1-hydroxyethyl}-2-(hydroxymethyl)phenol], for which the EC50 turned out to be 80 pM.

`CC(C)(Cc1cccc(CC(=O)NCc2cc(C(F)(F)F)ccc2F)c1)NC[C@H](O)c1ccc(O)c(CO)c1` [Example 24, N-[2-fluoro-5-(trifluoromethyl)benzyl]-2-{3-[2-({(2R)-2-hydroxy-2-[4-hydroxy-3-(hydroxymethyl)phenyl]ethyl}amino)-2-methylpropyl]phenyl}acetamide]: the concentration giving a half-maximal response (EC50) was 150 pM. Take `O=C(Cc1cccc(CCNC[C@H](O)c2ccc(O)c(CO)c2)c1)NCCc1ccccc1` [Example 46, 2-{3-[2-({(2R)-2-hydroxy-2-[4-hydroxy-3-(hydroxymethyl)phenyl]ethyl}amino)ethyl]phenyl}-N-(2-phenylethyl)acetamide]: the EC50 came to 838 pM. The same measure, in the same setting: the result for `C[C@H](Cc1cccc(C(=O)NCc2ccc(S(N)(=O)=O)cc2)c1)NC[C@H](O)c1ccc(O)c(CO)c1` [Example 62, N-[4-(aminosulfonyl)benzyl]-3-[(2R)-2-({(2R)-2-hydroxy-2-[4-hydroxy-3-(hydroxymethyl)phenyl]ethyl}amino)propyl]benzamide] reads 444 pM. Turning to `CC(C)(Cc1cccc(C(=O)NCCc2cccc(F)c2)c1)NC[C@H](O)c1ccc(O)c(CO)c1` [Example 63, N-[2-(3-Fluorophenyl)ethyl]-3-[2-({(2R)-2-hydroxy-2-[4-hydroxy-3-(hydroxymethyl)phenyl]ethyl}amino)-2-methylpropyl]benzamide], the half-maximal effective concentration (EC50) was 75 pM.

Take `CC(C)(Cc1cccc(C(=O)NCC2Cc3ccccc3C2)c1)NC[C@H](O)c1ccc(O)c(CO)c1` [Example 66]: the concentration giving a half-maximal response (EC50) was 1160 pM.

For the compound `Cc1cccc(CCNC(=O)c2cccc(CC(C)(C)NC[C@H](O)c3ccc(O)c(CO)c3)c2)n1` [Example 88], the concentration for a half-maximal effect (EC50) stood at 434 pM. `CC(C)(Cc1cccc(C(=O)NCCc2ccccc2C(F)(F)F)c1)NC[C@H](O)c1ccc(O)c(CO)c1` [Example 102]: the EC50 is 100 pM. For the compound `CC(C)(Cc1cccc(C(=O)NCCC23CC4CC(CC(C4)C2)C3)c1)NC[C@H](O)c1ccc(O)c(CO)c1` [Example 114], the EC50 was found to be 134 pM.

System in another data set: not given
Experiment: not given
Conditions: not given
With `CC(C)(Cc1cccc(C(=O)NCCc2ccc(Cl)cc2)c1)NC[C@H](O)c1ccc(O)c(CO)c1` [Example 33, N-[2-(4-chlorophenyl)ethyl]-3-{2-[(2R)-2-hydroxy-2-(4-hydroxy-3-hydroxymethyl-phenyl)ethylamino]-2-methylpropyl}benzamide], the melting point was in the range of 139 to 140 °C.
